How the values were obtained:
Kuramochi cells = test: IncuCyte cell proliferation assay; assay type: cell-based; details: Kuramochi cells labeled with mApple-H2B, cell count 0 to 72 hours, 20 μM top concentration; read-out: IncuCyte Kuramochi RB-WT: IC50
Description: IncuCyte® assay was used to measure the effect of disclosed compounds on cell proliferation. Fluorescent microscopy images of cells were taken immediately after compound treatment and 72 hours later. Image analysis software was used to obtain cell counts as a function of compound concentration. Kuramochi cells labeled with mApple-H2B were seeded on 384-well assay-ready plates. Plates were placed in an IncuCyte® (Sartorius) and scanned at 0 and 72 hours. IncuCyte® software was used to count the number of fluorescent nuclei in each well. The fold change in cell count from 0 to 72 hours in wells treated with increasing compounds concentrations (10 pts, 1/2 log dilution, 20 μM top concentration) was normalized to DMSO control wells. The normalized cell counts were fit with dose response curves and a […] was calculated.

CDK2/Cyclin E1 = CDK2/Cyclin E1 (Homo sapiens, UniProt P24941); test: ADP-Glo Luminescent Kinase Assay (CDK2/E1-37C); assay type: biochemical; details: 0.18 nM CDK2/Cyclin E1, 100 μM ATP, 1.5 μM Histone H1, 37° C., 60 min pre-incubation; read-out: ADPGLO (CDK2/E1-37C): IC50
Description: Inhibition of CDK2/Cyclin E1 activity by the presence of small molecules was evaluated using ADP-Glo Luminescent Kinase Assay (Promega). Activated CDK2/Cyclin E1 was incubated with its substrate Histone H1 (SignalChem H10-54N) in the kinase reaction buffer (100 μM ATP, 50 mM HEPES pH 7.5, 10 mM MgCl2, 1 mM EDTA, 2 mM DTT, 0.01% Brij35, 0.5 mg/mL BSA). Luminescence was recorded with an Envision plate reader (PerkinElmer).
Dose titrations of inhibitors in 100% DMSO were combined with 0.36 nM CDK2/Cyclin E1 in reaction buffer. The mixtures were incubated for 60 minutes at 37° C. before the addition of ATP and Histone H1 substrate to initiate the kinase reaction. The final conditions were 0.18 nM CDK2/Cyclin E1, 100 μM ATP, and 1.5 μM Histone H1. The reactions were incubated at 37° C. for 90 minutes before being stopped with the addition of ADP-Glo reagent. This mixture was incubated at room temperature for 60 minutes before Kinase Detection Solution is added to generate luminescence. The stopped reactions were analyzed on an Envision plate reader. The conversion ratios were normalized to yield % activity, plotted against compound concentration, and fit to a four-parameter equation to determine the IC50 for each compound.

Compound | IC50 (CDK2/Cyclin E1) [µM] | IC50 (Kuramochi cells) [µM]
C[C@@H](OCC1CCCCC1)[C@H](NC(=O)[C@@H]1CN(C(=O)c2cnn(Cc3ccccc3)c2)CC12CN(C(=O)[C@H]1CC1(C)C)C2)C(=O)N1CCCC[C@H]1C(=O)O [Example I-36, (S)-1-(N—((S)-6-(1-benzyl-1H-pyrazole-4-carbonyl)-2-((S)-2,2-dimethylcyclopropane-1-carbonyl)-2,6-diazaspiro[3.4]octane-8-carbonyl)-O-(cyclohexylmethyl)-L-threonyl)piperidine-2-carboxylic acid] | < 0.5 | > 20
CNC(=O)C(C)(C)CNC(=O)[C@@H](NC(=O)[C@@H]1CN(C(=O)c2cnn(Cc3ccccc3)c2)CC12CN(C(=O)[C@H]1CC1(C)C)C2)[C@@H](C)OCC1CCCCC1 [Example I-37, (S)-6-(1-benzyl-1H-pyrazole-4-carbonyl)-N-((2S,3R)-3-(cyclohexylmethoxy)-1-((2,2-dimethyl-3-(methylamino)-3-oxopropyl)amino)-1-oxobutan-2-yl)-2-((S)-2,2-dimethylcyclopropane-1-carbonyl)-2,6-diazaspiro[3.4]octane-8-carboxamide] | < 0.5 | 5 to 20
CNC(=O)[C@@H](NC(=O)[C@@H]1CN(C(=O)c2cncs2)CC12CN(CC1CCCO1)C2)[C@@H](C)OCC12CCC(CC1)OC2 (stereo partly shown) [Example I-48] | 5 to 10 | > 20
CC1(C)C[C@@H]1C(=O)N1CC2(CN(C(=O)c3cncs3)C[C@H]2C(=O)N2CCC[C@@H](N(CC(=O)NS(C)(=O)=O)CC3CCCCC3)C2)C1 [Example I-70, 2-((cyclohexylmethyl)((R)-1-((S)-2-((S)-2,2-dimethylcyclopropane-1-carbonyl)-6-(thiazole-5-carbonyl)-2,6-diazaspiro[3.4]octane-8-carbonyl)piperidin-3-yl)amino)-N-(methylsulfonyl)acetamide] | > 10 | > 20
CC1(C)C[C@@H]1C(=O)N1CC2(CN(C(=O)c3cncs3)C[C@H]2C(=O)N2CCC[C@@H](N(CC(=O)O)CC3CCCCC3)C2)C1 [Example I-71] | > 10 | > 20
CC1(C)C[C@@H]1C(=O)N1CC2(CN(C(=O)c3cncs3)C[C@H]2C(=O)N2CCC[C@H](N(CC(=O)NS(C)(=O)=O)CC3CCCCC3)C2)C1 [Example I-72, 2-((cyclohexylmethyl)((S)-1-((S)-2-((S)-2,2-dimethylcyclopropane-1-carbonyl)-6-(thiazole-5-carbonyl)-2,6-diazaspiro[3.4]octane-8-carbonyl)piperidin-3-yl)amino)-N-(methylsulfonyl)acetamide] | > 10 | > 20
CCOC(=O)CN(CC1CCCCC1)[C@H]1CCCN(C(=O)[C@@H]2CN(C(=O)c3cncs3)CC23CN(C(=O)[C@H]2CC2(C)C)C3)C1 [Example I-74] | 5 to 10 | > 20
C[C@@H](OCC1CCOCC1)[C@H](NC(=O)[C@@H]1CN(C(=O)c2cnc(O)cn2)CC12CN(C(=O)C1(C(F)(F)F)CC1)C2)C(=O)N1CCC(C(F)(F)F)CC1 [Example I-78, (S)-6-(5-hydroxypyrazine-2-carbonyl)-N-((2S,3R)-1-oxo-3-((tetrahydro-2H-pyran-4-yl)methoxy)-1-(4-(trifluoromethyl)piperidin-1-yl)butan-2-yl)-2-(1-(trifluoromethyl)cyclopropane-1-carbonyl)-2,6-diazaspiro[3.4]octane-8-carboxamide] | < 0.5 | > 20

Now from value to compound, other results behind:

IC50 (CDK2/Cyclin E1) [µM] | Compound | IC50 (Kuramochi cells) [µM]
< 0.5 | C[C@@H](OCC12CCC(CC1)OC2)[C@H](NC(=O)[C@@H]1CN(C(=O)c2cnn(Cc3ccccc3C(=O)O)c2)CC12CN(C(=O)C1(C(F)(F)F)CC1)C2)C(=O)N1CCC2(CCNCC2)CC1 [Example I-60, 2-((4-((S)-8-(((2S,3R)-3-((2-oxabicyclo[2.2.2]octan-4-yl)methoxy)-1-oxo-1-(3,9-diazaspiro[5.5]undecan-3-yl)butan-2-yl)carbamoyl)-2-(1-(trifluoromethyl)cyclopropane-1-carbonyl)-2,6-diazaspiro[3.4]octane-6-carbonyl)-1H-pyrazol-1-yl)methyl)benzoic acid] | 0.5 to 5
< 0.5 | C[C@@H](OCC12CCC(CC1)OC2)[C@H](NC(=O)[C@@H]1CN(C(=O)c2cnc(O)cn2)CC12CN(C(=O)C1(C(F)(F)F)CC1)C2)C(=O)N1CCC(c2ccc(C(F)(F)F)c(C(=O)O)c2)CC1 [Example I-63] | > 20
0.5 to 5 | C[C@@H](OCC1(C(F)(F)F)CC1)[C@H](NC(=O)[C@@H]1CN(C(=O)c2cnn(Cc3ccc(C(F)(F)F)cc3)c2)CC12CN(C(=O)C1(C(F)(F)F)CC1)C2)C(=O)N1CCC(c2ccc(C(=O)O)cc2)CC1 [Example I-68, 4-(1-(N—((S)-6-(1-(4-(trifluoromethyl)benzyl)-1H-pyrazole-4-carbonyl)-2-(1-(trifluoromethyl)cyclopropane-1-carbonyl)-2,6-diazaspiro[3.4]octane-8-carbonyl)-O-((1-(trifluoromethyl)cyclopropyl)methyl)-L-threonyl)piperidin-4-yl)benzoic acid] | > 20
< 0.5 | C[C@@H](OCC12CCC(CC1)OC2)[C@H](NC(=O)[C@@H]1CN(C(=O)c2cnn(Cc3ccccc3)c2)CC12CN(C(=O)C1(C(F)(F)F)CC1)C2)C(=O)N1CCC(c2nccs2)CC1 [Example I-69, (S)—N-((2S,3R)-3-(2-oxabicyclo[2.2.2]octan-4-ylmethoxy)-1-oxo-1-(4-(thiazol-2-yl)piperidin-1-yl)butan-2-yl)-6-(1-benzyl-1H-pyrazole-4-carbonyl)-2-(1-(trifluoromethyl)cyclopropanecarbonyl)-2,6-diazaspiro[3.4]octane-8-carboxamide] | 0.5 to 5
5 to 10 | C[C@@H](OCC12CCC(CC1)OC2)[C@H](NC(=O)[C@@H]1CN(C(=O)c2cnn(Cc3ccc(C(F)(F)F)cc3)c2)CC12CN(C(=O)C1(C(F)(F)F)CC1)C2)C(=O)NCCC(=O)NS(C)(=O)=O [Example I-73, (S)—N-((2S,3R)-3-((2-oxabicyclo[2.2.2]octan-4-yl)methoxy)-1-((3-(methylsulfonamido)-3-oxopropyl)amino)-1-oxobutan-2-yl)-6-(1-(4-(trifluoromethyl)benzyl)-1H-pyrazole-4-carbonyl)-2-(1-(trifluoromethyl)cyclopropane-1-carbonyl)-2,6-diazaspiro[3.4]octane-8-carboxamide] | > 20
5 to 10 | C[C@@H](OCC12CCC(CC1)OC2)[C@H](NC(=O)[C@@H]1CN(C(=O)c2cnn(Cc3ccc(C(F)(F)F)cc3)c2)CC12CN(C(=O)C1(C(F)(F)F)CC1)C2)C(=O)NCCC(=O)O [Example I-75] | > 20
< 0.5 | C[C@@H](OCC1CCOCC1)[C@H](NC(=O)[C@@H]1CN(C(=O)c2cnn(Cc3ccc(C(F)(F)F)cc3)c2)CC12CN(C(=O)C1(C(F)(F)F)CC1)C2)C(=O)N1CCC(c2nccs2)CC1 [Example I-79, (S)—N-((2S,3R)-1-oxo-3-((tetrahydro-2H-pyran-4-yl)methoxy)-1-(4-(thiazol-2-yl)piperidin-1-yl)butan-2-yl)-6-(1-(4-(trifluoromethyl)benzyl)-1H-pyrazole-4-carbonyl)-2-(1-(trifluoromethyl)cyclopropane-1-carbonyl)-2,6-diazaspiro[3.4]octane-8-carboxamide] | 0.5 to 5
0.5 to 5 | C[C@@H](OCC1(C(F)(F)F)CC1)[C@H](NC(=O)[C@@H]1CN(C(=O)c2cnn(Cc3ccc(C(F)(F)F)cc3)c2)CC12CN(C(=O)C1(C(F)(F)F)CC1)C2)C(=O)N1CCC(c2nccs2)CC1 [Example I-80, (S)—N-((2S,3R)-1-oxo-1-(4-(thiazol-2-yl)piperidin-1-yl)-3-((1-(trifluoromethyl)cyclopropyl)methoxy)butan-2-yl)-6-(1-(4-(trifluoromethyl)benzyl)-1H-pyrazole-4-carbonyl)-2-(1-(trifluoromethyl)cyclopropane-1-carbonyl)-2,6-diazaspiro[3.4]octane-8-carboxamide] | 0.5 to 5
< 0.5 | C[C@@H](OCC12CCC(CC1)OC2)[C@H](NC(=O)[C@@H]1CN(C(=O)c2cnn(Cc3ccc(C(F)(F)F)cc3)c2)CC12CN(C(=O)C1(C(F)(F)F)CC1)C2)C(=O)N1CCC(c2ccc(C(=O)O)c(O)c2)CC1 [Example I-81, 4-(1-(O-((2-Oxabicyclo[2.2.2]octan-4-yl)methyl)-N—((S)-6-(1-(4-(trifluoromethyl)benzyl)-1H-pyrazole-4-carbonyl)-2-(1-(trifluoromethyl)cyclopropane-1-carbonyl)-2,6-diazaspiro[3.4]octane-8-carbonyl)-L-threonyl)piperidin-4-yl)-2-hydroxybenzoic acid] | > 20

Reference: patent publication US20260265262A1, “CDK2 INHIBITORS AND METHODS OF USING THE SAME” (Cedilla Therapeutics, Inc., priority 2022, published 2026)
